Experimental data from ChEMBL document CHEMBL5634123, “Design and synthesis of 1H-benzo[d]imidazole selective HDAC6 inhibitors with potential therapy for multiple myeloma” (Eur J Med Chem, 2023).

Assays:
[1] = molecular target: T1, Protein deacetylase HDAC6 (Homo sapiens, UniProt Q9UBN7); assay: Inhibition of HDAC6 (unknown origin) preincubated for 10 mins followed by substrate addition measured for 1 hr by fluorescence based assay
T1 sequence (Q9UBN7 whole entry): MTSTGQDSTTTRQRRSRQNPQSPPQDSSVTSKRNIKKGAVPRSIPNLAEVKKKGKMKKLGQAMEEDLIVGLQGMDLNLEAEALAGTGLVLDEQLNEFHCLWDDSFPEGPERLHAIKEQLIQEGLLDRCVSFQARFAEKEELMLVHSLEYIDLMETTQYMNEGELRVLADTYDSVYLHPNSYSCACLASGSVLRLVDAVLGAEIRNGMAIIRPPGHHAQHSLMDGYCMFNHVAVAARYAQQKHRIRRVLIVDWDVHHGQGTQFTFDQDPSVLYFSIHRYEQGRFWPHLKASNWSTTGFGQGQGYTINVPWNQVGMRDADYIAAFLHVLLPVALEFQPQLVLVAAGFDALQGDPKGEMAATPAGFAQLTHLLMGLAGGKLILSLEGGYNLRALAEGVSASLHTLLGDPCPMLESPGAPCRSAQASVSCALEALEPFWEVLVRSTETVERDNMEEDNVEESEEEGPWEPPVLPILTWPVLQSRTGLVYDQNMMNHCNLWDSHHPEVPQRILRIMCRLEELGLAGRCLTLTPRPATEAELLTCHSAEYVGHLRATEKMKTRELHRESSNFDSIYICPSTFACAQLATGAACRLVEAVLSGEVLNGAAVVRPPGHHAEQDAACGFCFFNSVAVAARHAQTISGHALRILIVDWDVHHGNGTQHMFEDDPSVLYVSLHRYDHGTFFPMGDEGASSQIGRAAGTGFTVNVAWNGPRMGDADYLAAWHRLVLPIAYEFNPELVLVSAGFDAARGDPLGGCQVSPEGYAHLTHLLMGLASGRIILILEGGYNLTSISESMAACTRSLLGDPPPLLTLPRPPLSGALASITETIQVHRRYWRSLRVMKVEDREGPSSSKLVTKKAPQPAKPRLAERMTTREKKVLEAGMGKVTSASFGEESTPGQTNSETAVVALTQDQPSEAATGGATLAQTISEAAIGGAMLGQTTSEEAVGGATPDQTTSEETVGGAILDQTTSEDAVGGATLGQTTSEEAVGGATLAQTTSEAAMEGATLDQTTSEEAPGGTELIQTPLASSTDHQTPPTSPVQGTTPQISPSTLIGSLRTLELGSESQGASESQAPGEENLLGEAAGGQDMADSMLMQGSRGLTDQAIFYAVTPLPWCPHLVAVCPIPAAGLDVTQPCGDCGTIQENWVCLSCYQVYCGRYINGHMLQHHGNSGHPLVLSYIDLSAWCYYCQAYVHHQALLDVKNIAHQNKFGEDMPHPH

[2] = test system: RPMI-8226; assay: cells; details: Homo sapiens, RPMI-8226, 24 h
[3] = test system: MDA-MB-468; assay: cells; details: Homo sapiens, MDA-MB-468, 24 h
[4] = test system: SGC-7901; assay: Cytotoxicity against human SGC-7901 cells assessed as inhibition of cell viability incubated for 24 hrs by CCK8 assay; assay type: functional, cell-based; details: SGC-7901, 24 h
[5] = test system: HCCLM3; assay: Cytotoxicity against human HCCLM3 cells assessed as inhibition of cell viability incubated for 24 hrs by CCK8 assay; assay type: functional, cell-based; details: HCCLM3, 24 h
[6] = test system: HCT-116; assay: Cytotoxicity against human HCT-116 cells assessed as inhibition of cell viability incubated for 24 hrs by CCK8 assay; assay type: functional, cell-based; details: HCT-116, 24 h
[7] = molecular target: T2, Protein deacetylase HDAC6 (Homo sapiens) (UniProt Q9UBN7); assay: Inhibition of HDAC6 (unknown origin) at 1 uM preincubated for 10 mins followed by substrate addition measured for 1 hr by fluorescence based assay relative to control; details: time 70.0 min
T2 sequence (whole entry): T1 sequence (Q9UBN7 whole entry)

[8] = molecular target: Histone deacetylase 1 (Homo sapiens, UniProt Q13547); assay: Inhibition of HDAC1 (unknown origin) preincubated for 10 mins followed by substrate addition measured for 1 hr by fluorescence based assay
[9] = test system: RPMI-8226; assay: Induction of apoptosis in human RPMI-8226 cells assessed as early apoptotic cells at 2.5 uM incubated for 24 hrs by Annexin V-FITC/PI staining based flow cytometry (reference value: 5.34 %); assay type: functional
[10] = test system: RPMI-8226; assay: Induction of apoptosis in human RPMI-8226 cells assessed as viable cells at 2.5 uM incubated for 24 hrs by Annexin V-FITC/PI staining based flow cytometry (reference value: 90.98 %); assay type: functional; details: read-out: Activity
[11] = test system: RPMI-8226; assay: Induction of apoptosis in human RPMI-8226 cells assessed as necrotic cells at 2.5 uM incubated for 24 hrs by Annexin V-FITC/PI staining based flow cytometry (reference value: 0.90 %); assay type: functional
[12] = Cmax in mouse at 10 mg/kg, po; assay type: ADME, organism-based; details: in vivo
[13] = test system: RPMI-8226; assay: Antitumor activity against human RPMI-8226 cells xenografted in Balb/c nude mouse assessed as ratio of tumor to control at 40 mg/kg, po qd for 21 days administered consecutively relative to control; assay type: functional; details: time 21 day
[14] = Toxicity in Balb/c nude mouse xenografted with human RPMI-8226 cells assessed as body weight loss at 40 mg/kg, po qd for 21 days administered consecutively; assay type: organism-based; details: in vivo, 504 h, time 21 day
[15] = Tmax in mouse at 10 mg/kg, po; assay type: ADME, organism-based; details: in vivo
[16] = test system: RPMI-8226; assay: Induction of cell cycle arrest at G1 phase in human RPMI-8226 cells at 2.5 uM incubated for 24 hrs by PI staining based flow cytometry (reference value: 19.2 %); assay type: functional
[17] = test system: RPMI-8226; assay: Induction of cell cycle arrest at G2 phase in human RPMI-8226 cells at 2.5 uM incubated for 24 hrs by PI staining based flow cytometry (reference value: 18.3 %); assay type: functional
[18] = test system: RPMI-8226; assay: Induction of apoptosis in human RPMI-8226 cells assessed as late apoptotic cells at 2.5 uM incubated for 24 hrs by Annexin V-FITC/PI staining based flow cytometry (reference value: 2.78 %); assay type: functional
[19] = Volume of distribution at steady state in mouse at 1 mg/kg, iv; assay type: ADME, organism-based; details: in vivo, read-out: Vdss
[20] = AUC (0 to t) in mouse at 1 mg/kg, iv; assay type: ADME, organism-based; details: in vivo
[21] = Oral bioavailability in mouse at 10 mg/kg; assay type: ADME, organism-based; details: in vivo
[22] = Half life in mouse at 1 mg/kg, iv; assay type: ADME, organism-based; details: in vivo
[23] = Clearance in mouse at 1 mg/kg, iv; assay type: ADME, organism-based; details: in vivo
[24] = test system: RPMI-8226; assay: Induction of cell cycle arrest at S phase in human RPMI-8226 cells at 2.5 uM incubated for 24 hrs by PI staining based flow cytometry (reference value: 58.5 %); assay type: functional

Chain of Histone deacetylase 1 (Q13547 whole entry): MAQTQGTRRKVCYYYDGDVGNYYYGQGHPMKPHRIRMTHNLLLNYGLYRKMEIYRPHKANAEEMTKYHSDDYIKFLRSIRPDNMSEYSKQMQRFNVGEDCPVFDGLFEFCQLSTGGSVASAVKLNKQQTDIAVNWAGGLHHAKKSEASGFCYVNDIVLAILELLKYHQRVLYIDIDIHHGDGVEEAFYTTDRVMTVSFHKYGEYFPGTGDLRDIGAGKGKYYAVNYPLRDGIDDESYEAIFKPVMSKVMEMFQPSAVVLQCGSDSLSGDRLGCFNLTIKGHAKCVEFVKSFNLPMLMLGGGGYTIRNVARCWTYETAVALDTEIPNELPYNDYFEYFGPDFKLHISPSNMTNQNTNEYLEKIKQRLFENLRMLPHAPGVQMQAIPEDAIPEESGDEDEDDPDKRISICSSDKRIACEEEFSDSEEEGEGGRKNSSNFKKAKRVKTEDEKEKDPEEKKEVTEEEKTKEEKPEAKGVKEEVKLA

| IC50 [1] [µM] | IC50 [2] [µM] | IC50 [3] [µM] | SMILES | IC50 [4] [µM] | IC50 [5] [µM] | IC50 [6] [µM] | also measured |
| --- | --- | --- | --- | --- | --- | --- | --- |
| 0.0281 |  |  | Cn1c(CSc2ccccc2)nc2cc(C(=O)NO)ccc21 |  |  |  |  |
| 0.00922 | 1.05 | 9.16 | C[C@H](NCc1ccccc1)c1nc2cc(C(=O)NO)ccc2n1C | 2.4 | 2.42 | 6.42 |  |
| 0.0144 | 0.349 | 10.8 | Cn1c(CNCc2ccccc2)nc2cc(C(=O)NO)ccc21 | 5.1 | 2.62 | 1.33 | IC50 [8]: 0.976 µM |
| 0.0158 | 2.06 | 9.6 | Cn1c(CNc2ccccc2)nc2cc(C(=O)NO)ccc21 | > 50 | 41.5 | 17.2 |  |
| 0.0138 | 2.47 | 8.58 | Cn1c(CNc2ccccc2F)nc2cc(C(=O)NO)ccc21 | 5.81 | 14.5 | > 50 |  |
| 0.0158 | 2.19 | 5.53 | Cc1ccccc1NCc1nc2cc(C(=O)NO)ccc2n1C | 10.8 | 15 | 6.3 |  |
| 0.00955 | 0.934 | 8.17 | CCCCN(Cc1nc2cc(C(=O)NO)ccc2n1C)c1ccccc1 | 2.83 | 3.49 | 3.12 | IC50 [8]: 0.634 µM |
| 0.0128 | 2.39 | > 50 | CCCN(Cc1nc2cc(C(=O)NO)ccc2n1C)c1ccccc1 | 8.69 | 4.8 | 2.06 |  |
| 0.0126 | 2.52 | 7.96 | Cn1c(COc2ccccc2)nc2cc(C(=O)NO)ccc21 | 9.81 | 8.72 | 2.26 |  |
| 0.0103 | 1.38 | > 50 | CCN(Cc1nc2cc(C(=O)NO)ccc2n1C)c1ccccc1 | 4.2 | 4.51 | 0.5 |  |
| 0.00891 | 0.661 | 4.93 | CN(Cc1nc2cc(C(=O)NO)ccc2n1C)c1ccccc1 | 3.69 | 6.69 | 9.95 | IC50 [8]: 0.567 µM |
| 0.00583 | 0.709 | 6.01 | C[C@@H](NCc1ccccc1)c1nc2cc(C(=O)NO)ccc2n1C | 1.65 | 1.45 | 0.508 | IC50 [8]: 0.841 µM |

The next lines start with the molecule.

| SMILES | IC50 [1] [µM] | IC50 [2] [µM] | IC50 [3] [µM] | IC50 [4] [µM] | IC50 [5] [µM] | IC50 [6] [µM] | also measured |
| --- | --- | --- | --- | --- | --- | --- | --- |
| Cn1c(CN2CCCCC2)nc2cc(C(=O)NO)ccc21 | 0.0342 |  |  |  |  |  |  |
| Cn1c(CNc2ccccc2)nc2ccc(C(=O)NO)cc21 |  |  |  |  |  |  | inhibition [7]: 64.1% |
| O=C(NO)c1ccc2ncn(CCc3ccccc3)c2c1 |  |  |  |  |  |  | inhibition [7]: 23.4% |
| O=C(CCCCCCNC(=O)c1cnc(N(c2ccccc2)c2ccccc2)nc1)NO [RICOLINOSTAT] |  |  |  |  |  |  | Activity [9]: 19.84%; viability at 2.5 µM [10]: 75.3%; Activity [11]: 0.56%; Cmax [12]: 333 ng/mL; T/C [13]: 39.9%; Activity [14]: Non-Toxic; Tmax [15]: 15 min; Activity [16]: 28.1%; Activity [17]: 24.5%; Activity [18]: 4.33%; Vd [19]: 0.525 L/kg; AUC(0-t) [20]: 566 ng·h/mL; bioavailability [21]: 6%; half-life [22]: 22.3 min; clearance [23]: 29.4 mL/min/kg; Activity [24]: 40.8% |
| O=C(NO)c1ccc2nc(CCc3ccccc3)[nH]c2c1 | 0.0692 |  |  |  |  |  |  |
| O=C(NO)c1ccc2nc[nH]c2c1 | 4.35 |  |  |  |  |  | IC50 [8]: > 10 µM |
| CCn1c(CNc2ccccc2)nc2cc(C(=O)NO)ccc21 | 0.853 |  |  |  |  |  |  |
| Cn1c(CNc2cccc3ccccc23)nc2cc(C(=O)NO)ccc21 | 0.00587 | 0.32 | 6.73 | 0.518 | 0.781 | 9.36 | IC50 [8]: 0.834 µM |
| Cn1c([C@H](Cc2ccccc2)NCc2ccccc2)nc2cc(C(=O)NO)ccc21 | 0.00758 | 2.04 | 44 | 40.9 | > 50 | 5.52 |  |
| Cn1c(CNc2ccc(F)cc2)nc2cc(C(=O)NO)ccc21 | 0.0184 |  |  |  |  |  |  |
| Cc1cccc(NCc2nc3cc(C(=O)NO)ccc3n2C)c1 | 0.0118 | 1.62 | > 50 | 27.9 | > 50 | 16 |  |
| CC(C)n1c(CNc2ccccc2)nc2cc(C(=O)NO)ccc21 | 1.51 |  |  |  |  |  |  |
| O=C(NO)c1ccc2c(c1)nc(CNc1ccccc1)n2C1CC1 | 0.898 |  |  |  |  |  |  |
| Cc1ccc(NCc2nc3cc(C(=O)NO)ccc3n2C)cc1 | 0.0194 |  |  |  |  |  |  |
| Cn1c(CN2CCC3(CC2)OCCO3)nc2cc(C(=O)NO)ccc21 | 0.0364 |  |  |  |  |  |  |
| CCCCN(Cc1nc2cc(C(=O)NO)ccc2n1C)c1cccc(F)c1 | 0.0128 | 1.33 | 10.5 | 6.53 | 4.43 | 3.58 |  |
| Cn1c(CNc2cccc(F)c2)nc2cc(C(=O)NO)ccc21 | 0.00678 | 1.87 | 3.76 | 13.6 | 5.18 | 1.43 |  |
| O=C(NO)c1ccc2c(c1)ncn2CCc1ccccc1 |  |  |  |  |  |  | inhibition [7]: 70.3% |
